# Entries after “also recorded” stand apart in the source; their conditions may differ.
# Assays:
# [1] = test system: anesthetized dogs; assay: In vivo electrophysiology (atrial ERP, QTc) in anesthetized dogs; set-up: species or system dog; details: 5 mg/kg intraduodenal, BCL 200 ms, pre-treatment (baseline)
# Procedure: Adult mongrel dogs (12-15 kg) were anesthetized with pentobarbital (30 mg/kg i.v.), supplemented during the experiment when needed. The animal was intubated and ventilated with room air. Body temperature was maintained at 37-38° C. with a temperature control system. The left femoral vein was cannulated for maintenance of anesthesia and introducing the mono-phasic action potential (MAP) recording- and pacing-catheters (Boston Scientific Ltd) to the right atrium. The vagus nerves were isolated and divided in the neck. […] A left thoracotomy was performed in the fourth intercostal space, and the pericardium was incised to provide access to the left atrium for introducing the MAP catheter. The catheters were used for recording MAPs of right and left atria, respectively, and for measurement of effective refractory period (ERP). […] A ligation was made at the pylorus with a thick cotton thread to prevent the possible back flow of the duodenum content.
# Following a 30-min equilibration period and measurement of atrial excitation threshold with 2-ms duration of stimuli, atrial ERP was determined using a train of 8 basic stimuli (S1, twice-diastolic threshold) followed by an identical premature stimulus (S2). The basic cycle lengths (BCL) of 200, 250 and 300 ms were applied in both right and left atria. S2 was initially delivered late in diastole in 5-ms decrements until a response was not elicited by the S2 indicated on the MAP recording. The ERP was defined as the longest S1-S2 interval failing a propagated response, and the procedure was repeated for three times for each measurement. MAP, ECG and blood pressure signals were continuously monitored and stored on an IBM compatible PC computer using a multiple channels data acquisition system (RM-6280C, Chengdu Instrument Ltd, Chendu, China).
# The ERP measurement was then repeated every hour post drug administration for 6 hours. Excitation threshold of both right and left atria was verified before ERP each measurement. • 1.7.2.
# The ERPs were determined in anesthetized dogs using the BCLs of 300, 250, and 200 ms by introducing S1-S2 via a programmed cardiac stimulator (FIG. 10A).
# [2] = test system: ICa.L; assay: ICa.L in guinea pig ventricular myocytes; type: cell-based; details: 30 and 100 μM
# Procedure: (§1) Guinea pigs of either gender (250-300 g) were sacrificed by cervical dislocation after anesthetization with pentobarbital (40 mg kg, i.p.). The procedure related to the use of animals in this invention was approved by the Animal Care and Use Committee for Teaching and Research of University of Hong Kong in accordance with the Guide for the Care and Use of Laboratory Animals (Institute of Laboratory Animal Resources, Commission on Life Sciences, National Research Council, 1996). Left atrial and ventricular myocytes from guinea pig hearts were enzymatically dissociated by the procedure described previously (Li et al., 2002a) and the isolated myocytes were kept in the K^+ storage medium.
# The Ca^2+-free cardioplegic solution for specimen transport contained (in mM) 50 KH2PO4, 8 MgSO4, 5 adenosine, 10 HEPES, 140 glucose, 100 mannitol, 10 taurine, pH was adjusted to 7.3 with KOH. Tyrode solution contained (in mM) 140 NaCl, 5.4 KCl, 1 MgCl2, 1 CaCl2, 0.33 NaH2PO4, 10 HEPES, 10 glucose, pH was adjusted to 7.4 with NaOH. […] INa was recorded under conditions of K^+-free and a symmetrical Na^+ (5 mM) in pipette and superfusion solutions as described previously (Li at al., 2002a).
# The whole-cell patch-clamp technique was used for electrophysiological recording. […] Membrane currents were recorded in voltage-clamp mode using an EPC-9 amplifier and Pulse software (HEKA, Lambrecht, Germany). […]
# [3] = test system: anesthetized dogs; assay: Experimental vagotonic AF in anesthetized dogs; type: in vivo, dog; details: for summarized anti-AF efficacy: vehicle 0%; for animals in which sustained AF was not observed: vehicle: sustained AF in 100%; for prevention of AF induction, in words: 5 and 10 mg/kg intraduodenal, P<0.05 vs vehicle
# Procedure: Sustained vagotonic AF was generated in anesthetized dogs by introducing two MAP catheters respectively into the right atrium and the left ventricle along with stimulation of the divided bilateral vagal nerves in the neck. […] Ventricular pacing was performed with 2 ms voltage pulses (2.5 Hz, 150% diastolic threshold) when vagal nerves were continuously stimulated. AF was generated by the BCL 100-ms S1 followed by S2, lasting for 10 min. […] The sustained AF could be repeatedly generated and terminated by stopping vagal stimulation. AF incidence and AF duration were recorded before and at different time points (0.5, 1, 1.5, 2, 3, and 4h) after intraduodenal administration of drugs.
# AF was induced by S1-S2 stimulation at 100 ms BCL with bilateral vagal stimulation (see Methods & FIG. 12) at certain time points during the 0.5 to 4 h period following intraduodenal administration. AF lasted for 10 min and terminated once vagal stimulation was stopped. No AF occurrence or shortened AF duration during the continuous vagal stimulation were considered to represent prevention of AF.
# [4] = molecular target: T1, Kv1.5 (Homo sapiens, UniProt P22460); assay: Kv1.5 channel block in stably expressing HEK 293 cells; type: cell-based; details: HEK 293 cells stably expressing Kv1.5, Table 3; read-out: Kv1.5 (IC50)
# T1 construct: expressed in transfected cells
# T1 sequence (P22460 whole entry): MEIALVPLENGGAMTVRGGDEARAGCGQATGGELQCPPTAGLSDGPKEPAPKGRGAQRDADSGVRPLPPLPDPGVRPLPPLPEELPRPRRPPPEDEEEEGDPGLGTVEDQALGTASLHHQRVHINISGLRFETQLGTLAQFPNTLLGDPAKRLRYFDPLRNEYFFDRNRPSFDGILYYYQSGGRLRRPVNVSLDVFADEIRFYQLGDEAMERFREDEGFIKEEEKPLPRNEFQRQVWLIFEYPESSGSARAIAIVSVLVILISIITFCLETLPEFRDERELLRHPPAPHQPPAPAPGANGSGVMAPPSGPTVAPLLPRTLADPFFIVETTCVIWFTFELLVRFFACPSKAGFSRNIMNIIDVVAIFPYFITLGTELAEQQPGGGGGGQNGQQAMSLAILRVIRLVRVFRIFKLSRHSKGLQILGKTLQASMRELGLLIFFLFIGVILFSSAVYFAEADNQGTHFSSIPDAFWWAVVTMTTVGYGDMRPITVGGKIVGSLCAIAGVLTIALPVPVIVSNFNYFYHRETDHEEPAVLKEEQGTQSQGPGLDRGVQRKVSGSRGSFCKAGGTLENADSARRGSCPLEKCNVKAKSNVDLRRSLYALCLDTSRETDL
# Procedure: The established HEK 293 cell lines stably expressing the hERG channel gene, Kv1.5 (Tang et al., 2007), or recombinant human cardiac KCNQ1/KCNE1 channel current (IKs) (Dong et al., 2006) was maintained separately in Dulbecco's modified eagle medium (Invitrogen) supplemented with 10% fetal bovine serum and containing 400 μg/ml G418 (for hERG or Kv1.5 channels) or 100 μg/ml hygromycin (for IKs).
# (§2) The whole-cell patch-clamp technique was used for electrophysiological recording. Borosilicate glass electrodes (1.2-mm OD) were pulled with a Brown-Flamming puller (model P-97, Sutter Instrument Co, Novato, Calif., USA) and had tip resistances of 2-3 MΩ when filled with pipette solution. Membrane currents were recorded in voltage-clamp mode using an EPC-9 amplifier and Pulse software (HEKA, Lambrecht, Germany). A 3-M KCl-agar salt bridge was used as reference electrode. The tip potentials were compensated before the pipette touched the cell. After a giga-ohm seal was obtained, the cell membrane was ruptured by gentle suction to establish the whole-cell configuration. The cell membrane capacitance (pF) was directly measured using the lock-in module of the Pulse software, and used for normalizing the current in individual cells. The series resistance (Rs) was 3-5 MΩ and was compensated by 50-70% to minimize voltage errors. Perforated patch configuration was used for recording action potential in human atrial cells and IKs in HEK 293 cells as described previously (Li et al., 2002b; Dong et al., 2006). Current signals were low-pass filtered at 5 kHz and stored on the hard disk of an IBM compatible computer.
# Other derivatives/analogs studied have no effect or a week inhibitory effect on Kv1.5.
# [5] = test system: IK.ACh; assay: Carbachol-evoked IK.ACh in guinea pig atrial myocytes; type: cell-based; details: for IK.ACh at +50 mV / IK.ACh at −100 mV: carbachol 5 μM; for IK.ACh at +50 mV: control 147.2; for IK.ACh at −100 mV: control −338.3±61.5; for block of carbachol-evoked IK.ACh, in words: 3 and 10 μM
# Procedure: as §1, §2
structure (smiles),measurement,setting,value
"COc1ccc(-c2cc(=O)c3c(O)cc(O)cc3o2)cc1 [Acacetin, 5,7-dihydroxy-4′-methoxyflavone]","right atrial ERP (ms), BCL 200 ms",[1],87.2 ± 7.9 ms
same,"effect on ICa.L, in words",[2],no effect; also recorded: no inhibition
same,"effect on ICa.L, in words",[2]; listed as acacetin,no effects
same,summarized anti-AF efficacy,[3]; 2.5 mg/kg intraduodenal,50%
same,animals in which sustained AF was not observed,[3]; 2.5 mg/kg intraduodenal,50%
same,summarized anti-AF efficacy,[3]; 5 mg/kg intraduodenal,85.7%
same,animals in which sustained AF was not observed,[3]; 5 mg/kg intraduodenal,57%
same,summarized anti-AF efficacy,[3]; 10 mg/kg intraduodenal,85.7%
same,animals in which sustained AF was not observed,[3]; 10 mg/kg intraduodenal,57%
same,"prevention of AF induction, in words",[3],significantly prevented AF
same,"prevention of AF induction, in words",[3]; listed as acacetin,significantly prevented AF induction
same,"incidence of AF, in words","[3]; acacetin 2.5, 5, 10 mg/kg, sotalol 5 mg/kg, 1.5-2.5 h after intraduodenal administration",reduced the incidence of AF
same,IC50,[4],3.4 µM
same,IK.ACh at +50 mV,"[5]; 3 μM, n=5",87.8±36.1 pA
same,IK.ACh at −100 mV,"[5]; 3 μM, n=5",−180.2±36.7 pA
same,IK.ACh at +50 mV,"[5]; 10 μM, n=6",55.7±26.2 pA
same,IK.ACh at −100 mV,"[5]; 10 μM, n=6",−75.6±21.1 pA
same,"block of carbachol-evoked IK.ACh, in words",[5],substantially blocked
same,"block of carbachol-evoked IK.ACh, in words",[5]; listed as acacetin,substantially inhibits
